# Reference: PMC7218169 (Frontiers in Immunology, 2020)
# Read-outs that look alike come from different tables or passages of the source.
# Columns and labels:
# [1] = tested on: CD3+ T cells; format: in vivo, human; settings: over the three RMD doses; increases 3 days after each dose, maintained up to 1 week after RMD3
# Description: Activation of T cells was determined based upon HLA-DR expression on CD3^+ T cells. Cryopreserved PBMC were thawed, and 1,000,000 cells were stained with CD3 APC-Cy7, CD4 FITC, CD8 BV510 and HLA-DR PECy7 (BioLegend #344818, 300538, 301048, and 307616, respectively). Cells were collected on an LSRII instrument (BD), and data analyzed according to the gating criteria shown in Supplementary Figure 1 using FlowJo 10 software.
# [2] = 5 mg/m^2 BSA i.v. over 4 hours; for RMD-PK AUC1, Med: plasma, AUC0-inf non-compartmental from simulated individual concentrations
# [3] = tested on: histone H3 acetylation in lymphocytes; format: in vivo, human; settings: peripheral lymphocytes
# Description: The levels of histone H3 acetylation in lymphocytes (based on FSC/SCC scatter) were determined by flow cytometry from samples taken before (0 h) and at the end of each RMD infusion (RMD1−2−3) (4 h), at 8 and 24 h (+1 day) RMD1, and at 72 h (+3 days) and 7 days after (RMD1−2−3). Cryopreserverd PBMC were thawed 4 h before use, and 500,000 cells were blocked with 600 ul of PBS/10% FBS for 20 min and stained with polyclonal rabbit anti-acetyl histoneH3 (10 μg/ml, MerckMillipore #06–599) or normal rabbit serum (control stain, LifeTechnologies #10510) for 30 min. Cells were washed and subsequently incubated with donkey anti-rabbit IgG(H+L) (6 μg/mL, LifeTechnologies #A21206) for 30 min at room temperature in the dark. Cells were washed, re-suspended in 150 μl PBS and analyzed. ~50,000 events were acquired per sample. The median fluorescence intensity (MFI) for each sample was calculated by substracting the background MFI (isotype control stain) from the anti-acetyl histoneH3 stain.
# [4] = tested on: HIV-1; format: in vivo, human
# [5] = tested on: CD4+ T cells; settings: median; 3 days after each RMD administration; not fully recovered by day 7 after RMD3
# [6] = tested on: HIV-1; format: in vivo, human; settings: ultrasensitive single copy assay, during RMD1−2−3
# Description: To evaluate HIV-1 RNA below 20 copies/ml, 4–8 ml of plasma samples taken before (0 h) and at the end of each RMD infusion (4 h), at 8 and 24 h (+1 day) after RMD1, and 72 h (+3 days) and 7 days after RMD1−2−3 were ultracentrifugated at 170,000 g at 4°C for 30 min and viral RNA was extracted automatically using the m2000sp Abbot device. HIV-1 RNA copies were quantified using the Abbott Real-Time HIV-1 assay (Abbott Molecular Inc.) and in-house calibration curve sets as described ([38]). The limit of detection (2 HIV-1 RNA copies/mL) was calculated relative to the plasma volume.
# [7] = tested on: early-treated HIV-1-infected individuals; settings: in vivo
compound,measurement,setting,value
"C/C=C1\NC(=O)[C@H]2CSSCC/C=C/[C@H](CC(=O)N[C@H](C(C)C)C(=O)N2)OC(=O)[C@H](C(C)C)NC1=O [RMD, Romidepsin]",T-cell activation (proportion of CD3+/HLA-DR+ cells),[1],increased in a progressive manner
same,"RMD-PK AUC1, Med",[2]; MAP - Controllers (n=3),473.5
same,"RMD-PK AUC1, Med",[2]; MAP - Non Controllers (n=10),392.9
same,RMD concentrations in plasma by 24 h after dosing,"[2]; individual profiles simulated with population PK model, LC-MS/MS",nearly undetectable levels
same,Time of return of acH3 to baseline values after each dose,[3]; flow cytometry,3 days
same,Histone H3 acetylation (acH3) during each RMD infusion,"[3]; flow cytometry MFI, remained high during 4 h",increased rapidly
same,Individuals with increases in CA HIV-1 RNA above 2-fold,[4]; at any time point after RMD administrations,80%
same,HIV-1 transcription (cell-associated HIV-1 RNA),"[4]; peripheral CD4+ T cells, normalized to TBP, relative to pre-RMD1, more pronounced after RMD2 and RMD3",transiently increased
same,Median increase of viral expression (CA HIV-1 RNA) at the end of each RMD infusion,"[4]; without correction by housekeeping gene, relative to before RMD1, normalization beyond 4 hours",higher than 2.5 fold
same,Transient decrease of CD4+ T-cell counts,[5],248 cells/mm^3
same,Kinetics of plasma HIV-1 RNA levels,[6],did not follow a clear pattern
same,AE recorded after RMD1−2−3,[7],204 AE
same,"Abdominal distension, Grade 1 n",[7],4 n
same,"Abdominal distension, Grade 2 n",[7],1 n
same,"Abdominal distension, Grade 3 n",[7],0 n
same,"Abdominal distension, Grade 4 n",[7],0 n
same,"Abdominal distension, Total n (%)",[7],5 (33) n (%)
same,"Abdominal pain, Grade 1 n",[7],5 n
same,"Abdominal pain, Grade 2 n",[7],2 n
same,"Abdominal pain, Grade 3 n",[7],0 n
same,"Abdominal pain, Grade 4 n",[7],0 n
same,"Abdominal pain, Total n (%)",[7],7 (47) n (%)
same,"Anorexia, Grade 1 n",[7],8 n
same,"Anorexia, Grade 2 n",[7],1 n
same,"Anorexia, Grade 3 n",[7],0 n
same,"Anorexia, Grade 4 n",[7],0 n
same,"Anorexia, Total n (%)",[7],9 (60) n (%)
same,"Anxiety, Grade 1 n",[7],0 n
same,"Anxiety, Grade 2 n",[7],1 n
same,"Anxiety, Grade 3 n",[7],0 n
same,"Anxiety, Grade 4 n",[7],0 n
same,"Anxiety, Total n (%)",[7],1 (7) n (%)
same,"Constipation, Grade 1 n",[7],4 n
same,"Constipation, Grade 2 n",[7],2 n
same,"Constipation, Grade 3 n",[7],0 n
same,"Constipation, Grade 4 n",[7],0 n
same,"Constipation, Total n (%)",[7],6 (40) n (%)
same,"Dry mouth, Grade 1 n",[7],1 n
same,"Dry mouth, Grade 2 n",[7],0 n
same,"Dry mouth, Grade 3 n",[7],0 n
same,"Dry mouth, Grade 4 n",[7],0 n
same,"Dry mouth, Total n (%)",[7],1 (7) n (%)
same,"ECG: ST-elevation, Grade 1 n",[7],1 n
same,"ECG: ST-elevation, Grade 2 n",[7],0 n
same,"ECG: ST-elevation, Grade 3 n",[7],0 n
same,"ECG: ST-elevation, Grade 4 n",[7],0 n
same,"ECG: ST-elevation, Total n (%)",[7],1 (7) n (%)
same,"Fatigue, Grade 1 n",[7],9 n
same,"Fatigue, Grade 2 n",[7],5 n
same,"Fatigue, Grade 3 n",[7],0 n
same,"Fatigue, Grade 4 n",[7],0 n
same,"Fatigue, Total n (%)",[7],14 (93) n (%)
same,Grade 1-2 laboratory abnormalities related to RMD,[7],22 n
same,Grade 4 creatinine kinase elevation,[7],one
same,"Headache, Grade 1 n",[7],9 n
same,"Headache, Grade 2 n",[7],5 n
same,"Headache, Grade 3 n",[7],0 n
same,"Headache, Grade 4 n",[7],0 n
same,"Headache, Total n (%)",[7],14 (93) n (%)
same,Hypophosphatemia,[7],8 events
same,"Hypotension, Grade 1 n",[7],0 n
same,"Hypotension, Grade 2 n",[7],1 n
same,"Hypotension, Grade 3 n",[7],0 n
same,"Hypotension, Grade 4 n",[7],0 n
same,"Hypotension, Total n (%)",[7],1 (7) n (%)
same,"Individuals who vomited the days of RMD administration, percent",[7],27%
same,"Libido decrease, Grade 1 n",[7],0 n
same,"Libido decrease, Grade 2 n",[7],1 n
same,"Libido decrease, Grade 3 n",[7],0 n
same,"Libido decrease, Grade 4 n",[7],0 n
same,"Libido decrease, Total n (%)",[7],1 (7) n (%)
same,"Metallic taste, Grade 1 n",[7],5 n
same,"Metallic taste, Grade 2 n",[7],1 n
same,"Metallic taste, Grade 3 n",[7],0 n
same,"Metallic taste, Grade 4 n",[7],0 n
same,"Metallic taste, Total n (%)",[7],6 (40) n (%)
same,"Myalgia, Grade 1 n",[7],1 n
same,"Myalgia, Grade 2 n",[7],1 n
same,"Myalgia, Grade 3 n",[7],0 n
same,"Myalgia, Grade 4 n",[7],0 n
same,"Myalgia, Total n (%)",[7],2 (13) n (%)
same,"Nausea, Grade 1 n",[7],4 n
same,"Nausea, Grade 2 n",[7],7 n
same,"Nausea, Grade 3 n",[7],0 n
same,"Nausea, Grade 4 n",[7],0 n
same,"Nausea, Total n (%)",[7],11 (73) n (%)
same,"Palpitations, Grade 1 n",[7],3 n
same,"Palpitations, Grade 2 n",[7],0 n
same,"Palpitations, Grade 3 n",[7],0 n
same,"Palpitations, Grade 4 n",[7],0 n
same,"Palpitations, Total n (%)",[7],3 (20) n (%)
same,"Participants with grade 4 AE, sepsis by Shigella sonnei (SAE)",[7],One
same,"Rash, Grade 1 n",[7],0 n
same,"Rash, Grade 2 n",[7],2 n
same,"Rash, Grade 3 n",[7],0 n
same,"Rash, Grade 4 n",[7],0 n
same,"Rash, Total n (%)",[7],2 (13) n (%)
same,"Sepsis by Shigella sonnei (SAE), Grade 1 n",[7],0 n
same,"Sepsis by Shigella sonnei (SAE), Grade 2 n",[7],0 n
same,"Sepsis by Shigella sonnei (SAE), Grade 3 n",[7],0 n
same,"Sepsis by Shigella sonnei (SAE), Grade 4 n",[7],1 n
same,"Sepsis by Shigella sonnei (SAE), Total n (%)",[7],1 (7) n (%)
same,"Somnolence, Grade 1 n",[7],1 n
same,"Somnolence, Grade 2 n",[7],0 n
same,"Somnolence, Grade 3 n",[7],0 n
same,"Somnolence, Grade 4 n",[7],0 n
same,"Somnolence, Total n (%)",[7],1 (7) n (%)
same,"Sweating, Grade 1 n",[7],2 n
same,"Sweating, Grade 2 n",[7],2 n
same,"Sweating, Grade 3 n",[7],0 n
same,"Sweating, Grade 4 n",[7],0 n
same,"Sweating, Total n (%)",[7],4 (27) n (%)
same,Thrombocytopenia,[7],5 events
same,Tolerability at the regimen and dose administered,[7],well-tolerated
same,"Vomits, Grade 1 n",[7],4 n
same,"Vomits, Grade 2 n",[7],0 n
same,"Vomits, Grade 3 n",[7],0 n
same,"Vomits, Grade 4 n",[7],0 n
same,"Vomits, Total n (%)",[7],4 (27) n (%)
